From ChEMBL document CHEMBL1157542, “Design and synthesis of potent and selective BACE-1 inhibitors” (J Med Chem, 2010) come the findings set out here.

The target in assay [1] is Cathepsin D (Homo sapiens, UniProt P07339).
Description: Inhibition of human liver cathepsin D
In assay [2] the target is Beta-secretase 1 (Homo sapiens, UniProt P56817). Description: biochemical.
Description: Inhibition of human BACE1 expressed in Escherichia coli cells (BL21(DE3) by TRF assay

SMILES strings stand for the structures.

Sequence of Beta-secretase 1 (P56817 whole entry): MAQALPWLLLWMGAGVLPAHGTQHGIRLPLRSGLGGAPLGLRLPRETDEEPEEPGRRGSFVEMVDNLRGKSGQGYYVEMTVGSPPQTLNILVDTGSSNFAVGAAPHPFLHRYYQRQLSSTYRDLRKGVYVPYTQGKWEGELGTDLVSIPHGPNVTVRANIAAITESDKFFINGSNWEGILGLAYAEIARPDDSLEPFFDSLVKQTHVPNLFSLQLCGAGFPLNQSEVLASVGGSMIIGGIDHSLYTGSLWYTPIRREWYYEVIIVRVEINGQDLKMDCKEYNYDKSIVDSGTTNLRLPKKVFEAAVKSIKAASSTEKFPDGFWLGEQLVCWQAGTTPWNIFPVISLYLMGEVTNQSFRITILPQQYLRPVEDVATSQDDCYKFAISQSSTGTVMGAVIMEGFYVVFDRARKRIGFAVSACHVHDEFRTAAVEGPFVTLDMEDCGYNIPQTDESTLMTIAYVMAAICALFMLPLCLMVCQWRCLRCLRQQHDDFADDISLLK
Sequence of Cathepsin D (P07339 65-162 limits assumed): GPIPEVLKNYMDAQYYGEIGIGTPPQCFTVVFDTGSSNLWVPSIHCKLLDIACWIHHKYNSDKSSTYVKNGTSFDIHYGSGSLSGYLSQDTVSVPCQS
Sequence of Cathepsin D (P07339 169-412 limits assumed): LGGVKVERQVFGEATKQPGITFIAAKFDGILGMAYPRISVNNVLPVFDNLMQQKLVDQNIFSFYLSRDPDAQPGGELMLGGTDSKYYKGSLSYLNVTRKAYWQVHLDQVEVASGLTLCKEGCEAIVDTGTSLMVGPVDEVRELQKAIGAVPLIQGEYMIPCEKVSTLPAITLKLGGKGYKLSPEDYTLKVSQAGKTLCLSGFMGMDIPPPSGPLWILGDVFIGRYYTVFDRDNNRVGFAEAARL

`CO[C@H](C[C@H](O)[C@H](COc1cc(F)cc(F)c1)NC(=O)c1cc(C(=O)N[C@H](C)c2ccccc2)cc(N(C)CS(C)(=O)=O)c1)C(=O)Nc1ccccc1`: the inhibition constant (Ki) in assay [1] was above 5000 nM; in assay [2] it was 200 nM.

In the case of `CO[C@H](C[C@H](O)[C@H](COc1cc(F)cc(F)c1)NC(=O)c1cc(C(=O)N[C@H](C)c2ccccc2)cc(N(C)CS(C)(=O)=O)c1)C(=O)Nc1ccc(F)cc1`, the Ki in assay [1] is above 5000 nM; in assay [2], 100 nM.

On to `CCCN(CCC)C(=O)c1cccc(C(=O)N[C@@H](COCc2cc(F)cc(F)c2)[C@@H](O)C[C@@H](OC)C(=O)NC2CC2)c1`, for which, in assay [2], the Ki was above 10000 nM. On the same count and under the same terms, for `CO[C@H](C[C@H](O)[C@H](COCc1ccc(Br)cc1)NC(=O)c1cc(C(=O)N[C@H](C)c2ccccc2)cc(N(C)CS(C)(=O)=O)c1)C(=O)N[C@H](C(=O)NCc1ccccc1)C(C)C` the value was 60 nM. In the case of `CO[C@H](C[C@H](O)[C@H](COc1cc(F)cc(F)c1)NC(=O)c1cc(C(=O)N[C@H](C)c2ccccc2)cc(N(C)CS(C)(=O)=O)c1)C(=O)N[C@H](C(=O)NCc1ccccc1)C(C)C`, the inhibition constant (Ki) in assay [1] was 1100 nM; in assay [2], below 1 nM.

For the compound `CO[C@H](C[C@H](O)[C@H](COc1cc(F)cc(F)c1)NC(=O)c1cc(C(=O)N[C@H](C)c2ccccc2)cc(N(C)CS(C)(=O)=O)c1)C(=O)NCc1ccccc1`, the Ki in assay [1] was above 5000 nM; in assay [2] it was 1400 nM. For the compound `CO[C@H](C[C@H](O)[C@H](COCc1cc(F)cc(F)c1)NC(=O)c1cc(C(=O)N[C@H](C)c2ccccc2)cc(N(C)CS(C)(=O)=O)c1)C(=O)N[C@H](C(=O)NCc1ccccc1)C(C)C`, in assay [2], affinity was put at a Ki of 80 nM.

As for `CO[C@H](C[C@H](O)[C@H](COc1ccc(Br)cc1)NC(=O)c1cc(C(=O)N[C@H](C)c2ccccc2)cc(N(C)CS(C)(=O)=O)c1)C(=O)N[C@H](C(=O)NCc1ccccc1)C(C)C`, the Ki came out at 840 nM in assay [1] and 75 nM in assay [2]. The matching figures for `CO[C@H](C[C@H](O)[C@H](COc1ccccc1)NC(=O)c1cc(C(=O)N[C@H](C)c2ccccc2)cc(N(C)CS(C)(=O)=O)c1)C(=O)N[C@H](C(=O)NCc1ccccc1)C(C)C`: 460 nM and 9 nM.

Turning to `CO[C@H](C[C@H](O)[C@H](COc1cc(F)cc(F)c1)NC(=O)c1cc(C(=O)N[C@H](C)c2ccccc2)cc(N(C)CS(C)(=O)=O)c1)C(=O)NC1CC1`, the inhibition constant (Ki) in assay [1] is above 5000 nM; in assay [2], 1800 nM. The matching figures for `CO[C@H](C[C@H](O)[C@H](COc1cc(F)cc(F)c1)NC(=O)c1cc(C(=O)N[C@H](C)c2ccccc2)cc(N(C)CS(C)(=O)=O)c1)C(=O)NCC(C)C`: above 5000 nM and 400 nM.

The compound `CCCN(CCC)C(=O)c1cccc(C(=O)N[C@@H](COc2cc(F)cc(F)c2)[C@@H](O)C[C@@H](OC)C(=O)NC2CC2)c1` had a Ki in assay [2] of 220 nM.

The Ki is a measure of affinity in units of concentration, obtained from inhibition or displacement. Read a low Ki as higher affinity.
